Where a name gives a salt, the structure may show the parent alone. Read-outs that look alike come from different tables or passages of the source.
Legend:
[1] = molecular target: T1, reuptake of noradrenaline (NA) in synaptosomes (Rattus norvegicus, UniProt Q63380); test: Inhibition of noradrenaline (NA) reuptake in synaptosomes; assay type: biochemical
T1 construct: in synaptosomes as described in WO 97/16451; from tissue; host or cells: synaptosomes (brain tissue)

[2] = molecular target: T2, reuptake of dopamine (DA) in synaptosomes (Rattus norvegicus, UniProt P23977); test: Inhibition of dopamine (DA) reuptake in synaptosomes; assay type: biochemical
T2 construct: in synaptosomes as described in WO 97/16451; from tissue; host or cells: synaptosomes (brain tissue)

[3] = molecular target: T3, reuptake of serotonine (5-HT) in synaptosomes (Rattus norvegicus, UniProt P31652); test: Inhibition of serotonine (5-HT) reuptake in synaptosomes; assay type: biochemical
T3 construct: in synaptosomes as described in WO 97/16451; from tissue; host or cells: synaptosomes (brain tissue)
Procedure: A number of compounds were tested for their ability to inhibit the reuptake of the monoamine neurotransmitters dopamine (DA) noradrenaline (NA) and serotonine (5-HT) in synaptosomes as described in WO 97/16451.
The test values are given as IC50 (the concentration (μM) of the test substance which inhibits the specific binding of ^3H-DA, ^3H-NA, or ^3H-5-HT by 50%).

T1 sequence (Q63380 1-617): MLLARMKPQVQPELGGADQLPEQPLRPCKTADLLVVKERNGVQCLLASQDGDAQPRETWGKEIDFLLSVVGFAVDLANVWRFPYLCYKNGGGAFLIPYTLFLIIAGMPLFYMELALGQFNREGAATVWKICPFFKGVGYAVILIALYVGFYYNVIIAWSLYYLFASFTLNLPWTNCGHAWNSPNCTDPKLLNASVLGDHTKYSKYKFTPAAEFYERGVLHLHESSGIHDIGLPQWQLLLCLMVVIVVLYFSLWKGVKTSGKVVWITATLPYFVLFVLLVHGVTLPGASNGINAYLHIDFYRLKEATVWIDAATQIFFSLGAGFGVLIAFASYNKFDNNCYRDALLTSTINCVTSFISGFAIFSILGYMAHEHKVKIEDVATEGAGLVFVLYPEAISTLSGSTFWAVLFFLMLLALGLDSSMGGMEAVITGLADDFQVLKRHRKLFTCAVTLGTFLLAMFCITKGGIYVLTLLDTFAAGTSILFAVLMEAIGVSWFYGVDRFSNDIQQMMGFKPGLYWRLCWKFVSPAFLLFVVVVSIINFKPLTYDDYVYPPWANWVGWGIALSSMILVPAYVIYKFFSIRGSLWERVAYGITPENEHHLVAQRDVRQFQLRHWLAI
T3 sequence (P31652 whole entry): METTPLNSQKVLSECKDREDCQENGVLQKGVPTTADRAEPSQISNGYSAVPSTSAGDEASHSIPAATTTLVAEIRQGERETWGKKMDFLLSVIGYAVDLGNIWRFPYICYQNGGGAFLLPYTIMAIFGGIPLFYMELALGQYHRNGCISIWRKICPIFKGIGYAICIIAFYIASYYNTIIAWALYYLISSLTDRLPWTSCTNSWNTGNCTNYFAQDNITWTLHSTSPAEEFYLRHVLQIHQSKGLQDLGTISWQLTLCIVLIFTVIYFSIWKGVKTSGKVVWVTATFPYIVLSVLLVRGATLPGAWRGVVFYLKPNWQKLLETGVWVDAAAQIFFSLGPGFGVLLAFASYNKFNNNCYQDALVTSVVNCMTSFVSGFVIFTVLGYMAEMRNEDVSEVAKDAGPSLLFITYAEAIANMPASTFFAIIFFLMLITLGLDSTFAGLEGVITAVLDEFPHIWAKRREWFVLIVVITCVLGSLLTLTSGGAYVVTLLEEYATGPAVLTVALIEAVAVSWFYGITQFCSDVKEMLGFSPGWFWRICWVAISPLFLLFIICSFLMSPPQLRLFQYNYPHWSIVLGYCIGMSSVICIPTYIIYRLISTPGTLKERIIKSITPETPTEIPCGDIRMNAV
T2 sequence (P23977 whole entry): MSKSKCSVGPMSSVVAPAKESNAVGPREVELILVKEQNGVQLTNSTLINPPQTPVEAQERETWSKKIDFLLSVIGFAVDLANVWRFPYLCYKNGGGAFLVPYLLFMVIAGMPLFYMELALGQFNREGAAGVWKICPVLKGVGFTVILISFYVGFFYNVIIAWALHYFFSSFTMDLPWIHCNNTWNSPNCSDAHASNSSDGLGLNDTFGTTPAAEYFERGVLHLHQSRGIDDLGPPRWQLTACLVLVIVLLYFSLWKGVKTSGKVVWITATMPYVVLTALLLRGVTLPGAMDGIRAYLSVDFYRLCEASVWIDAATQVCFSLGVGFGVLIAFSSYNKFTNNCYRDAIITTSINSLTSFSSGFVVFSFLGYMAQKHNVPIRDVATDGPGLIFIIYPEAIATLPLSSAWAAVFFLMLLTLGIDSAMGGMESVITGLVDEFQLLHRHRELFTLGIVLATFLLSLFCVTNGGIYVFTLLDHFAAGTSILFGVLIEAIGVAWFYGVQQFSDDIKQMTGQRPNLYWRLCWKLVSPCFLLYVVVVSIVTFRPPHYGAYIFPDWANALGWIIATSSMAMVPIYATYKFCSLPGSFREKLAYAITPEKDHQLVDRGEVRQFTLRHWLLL

`COc1ccc2cc(N3CC4CCCC(C3)N4C)ccc2c1` (as salt: fumaric acid salt) [1st compound of Method C, 3-(6-Methoxy-naphthalen-2-yl)-9-methyl-3,9-diaza-bicyclo[3.3.1]nonane] showed a melting point of 190 to 198.3 °C.
`Clc1ccc(N2CC3CCCC(C2)N3)cc1Cl` (as salt: hydrochloric acid salt) [1st compound of Method B, 3-(3,4-Dichloro-phenyl)-3,9-diaza-bicyclo[3.3.1]nonane] showed a melting point of 295.4 °C.
Molecule `Clc1ccc(N2CC3CCCC(C2)N3)cc1Cl` [1st compound of Method B, 3-(3,4-Dichloro-phenyl)-3,9-diaza-bicyclo[3.3.1]nonane] has an IC50 [1] of 7.4 nM, an IC50 [2] of 160 nM and an IC50 [3] of 0.69 nM.
Work on `COc1ccc2cc(N3CC4CCCC(C3)N4C)ccc2c1` [1st compound of Method C, 3-(6-Methoxy-naphthalen-2-yl)-9-methyl-3,9-diaza-bicyclo[3.3.1]nonane] yielded an IC50 [1] of 19 nM, an IC50 ([2]; synaptosomes, 3H-DA, read-out: DA-uptake IC50) of 230 nM and an IC50 [3] of 8.1 nM.
With `CN1C2CCCC1CN(c1ccc3cc(O)ccc3c1)C2` [3rd compound of Method C, 6-(9-Methyl-3,9-diaza-bicyclo[3.3.1]non-3-yl)-naphthalen-2-ol] the IC50 ([1]; synaptosomes, 3H-NA, read-out: NA-uptake IC50) was 110 nM, the IC50 [2] was 54 nM and the IC50 [3] was 7.9 nM.

Source: patent publication US8071598B2, “3,9-diazabicyclo[3.3.1]nonane derivatives and their use as monoamine neurotransmitter re-uptake inhibitors” (Neurosearch A/S, priority 2006, dated 2011)
